In one assay the test system is PKA. The experiment in a line: PKA activation (VASP phosphorylation, western blot) in U2OS-EPAC1 cells. It counts as cell-based. As to conditions: 100 µM test compound, FIG. 5. As for the experimental part:
FIG. 5. PKA activation results of representative newly discovered EPAC1 agonists. U2OS cells stably transfected with EPAC1 were treated with 100 µM of test compounds, cyclic nucleotide EPAC1 agonist 2 or 10 µM of forskolin and rolipram (F/R), cyclic AMP elevating agents, as a positive control. Active, phosphorylated VASP (P-VASP) was visualized using a phospho-specific, anti-VASP antibody. None of the test compounds promoted VASP phosphorylation in cells.
PKA and GPCR Selectivity. To investigate the EPAC selectivity of these EPAC agonists, compounds 25g, 25n and 25q were selected for further PKA activation studies, and the results are shown in FIG. 5. PKA activation was assessed by monitoring phosphorylation state of a downstream PKA effector, vasodilator-stimulated phosphoprotein (VASP).
(§1) SDS-PAGE and Western Blotting. Samples were prepared by mixing equal volumes of cell lysate and 2x SDS sample loading buffer and denaturing for 5 min at 95° C., unless indicated otherwise. Protein samples were separated by SDS-PAGE on 10% (v/v) polyacrylamide gels, for EPAC1 and VASP, or on 12.5% (v/v), for Rap1, and then transferred to nitrocellulose membranes. Membranes were then blocked for 1 h at room temperature in 5% (w/v) non-fat dry milk or 5% (w/v) BSA in Tris-buffered saline containing 0.1% (v/v) Tween 20, followed by an overnight incubation with primary antibody diluted in blocking buffer at 4° C. Subsequently, the membranes were incubated with appropriate horseradish peroxidase-conjugated secondary antibodies for 1 h at room temperature. For signal detection the SuperSignal West Pico PLUS Chemiluminescent Substrate (Thermo Scientific) was used. Images were acquired using the Fusion FX7 camera platform (Vilber). Densitometry was performed with ImageJ.
A general note: A western blot detects proteins with antibodies after separation by electrophoresis.

Another assay deals with T1, EPAC1-CNBD (Homo sapiens, UniProt O95398).
T1 sequence (O95398 169-318 isoform O95398-3): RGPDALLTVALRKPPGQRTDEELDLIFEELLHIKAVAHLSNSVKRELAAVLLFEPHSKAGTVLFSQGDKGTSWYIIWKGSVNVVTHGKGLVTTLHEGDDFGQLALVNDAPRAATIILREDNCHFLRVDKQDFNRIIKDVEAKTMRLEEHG
The experiment in a line: 8-NBD-cAMP competition binding assay, EPAC1-CNBD. As to conditions: for IC50 values as EPAC1 binders (in words): summary statement; for RFI (%) (relative fluorescence intensity), Table 4: compound 10 µM, EPAC1-CNBD 0.8 µM, 8-NBD-cAMP 62.5 nM, mean ± SEM, lower RFI = stronger binding.

Assay [1] has as its target T2, EPAC1 (Homo sapiens, UniProt O95398).
T2 sequence (O95398 1-923): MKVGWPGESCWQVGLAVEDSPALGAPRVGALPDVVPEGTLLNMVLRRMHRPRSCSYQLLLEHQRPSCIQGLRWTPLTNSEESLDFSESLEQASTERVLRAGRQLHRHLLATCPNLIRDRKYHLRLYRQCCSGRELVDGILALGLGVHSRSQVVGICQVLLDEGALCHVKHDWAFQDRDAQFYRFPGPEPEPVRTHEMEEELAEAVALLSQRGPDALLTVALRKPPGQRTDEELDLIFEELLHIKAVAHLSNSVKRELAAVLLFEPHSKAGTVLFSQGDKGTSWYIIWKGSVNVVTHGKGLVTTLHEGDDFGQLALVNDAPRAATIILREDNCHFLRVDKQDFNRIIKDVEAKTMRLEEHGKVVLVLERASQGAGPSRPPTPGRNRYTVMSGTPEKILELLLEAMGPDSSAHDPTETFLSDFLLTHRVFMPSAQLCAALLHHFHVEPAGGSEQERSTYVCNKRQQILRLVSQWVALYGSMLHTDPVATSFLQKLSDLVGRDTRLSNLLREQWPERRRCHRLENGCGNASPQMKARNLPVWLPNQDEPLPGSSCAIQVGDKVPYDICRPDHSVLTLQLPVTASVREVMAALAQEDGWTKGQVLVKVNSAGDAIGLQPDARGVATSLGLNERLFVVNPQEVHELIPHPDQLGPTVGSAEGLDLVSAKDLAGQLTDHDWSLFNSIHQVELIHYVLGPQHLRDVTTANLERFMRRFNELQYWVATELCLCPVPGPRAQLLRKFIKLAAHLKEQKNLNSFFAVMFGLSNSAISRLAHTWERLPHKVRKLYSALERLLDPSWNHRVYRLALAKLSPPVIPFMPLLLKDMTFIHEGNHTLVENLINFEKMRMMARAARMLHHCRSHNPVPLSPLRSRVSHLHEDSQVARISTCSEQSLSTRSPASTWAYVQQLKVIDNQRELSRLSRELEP
Put plainly: Active Rap1 pull-down in U2OS cells stably transfected with EPAC1. Format: cell-based. Set-up: expressed in transfected cells; host or cells: U2OS cells (from Professor Holger Rehmann, University of Utrecht). As to conditions: for Rap1 activation in EPAC1 cells: U2OS-EPAC1, 100 µM compound, 10 min, FIG. 7; for selectivity: ability to activate EPAC1 over EPAC2 (ratio of EPAC1 to EPAC2 activation): densitometry of Rap1-GTP immunoblots, U2OS-EPAC1 vs U2OS-EPAC2, FIG. 8. On the procedure: (§2) Series Expansion and EPAC1 vs EPAC2 Selectivity. GEF assay was used to further screen all newly synthesis analogues at 10 µM, to identify additional activating compounds to expand the series of EPAC1 agonists (FIG. 6). […] Having now identified an expanded exemplary series of compounds as potential EPAC1 activators the ability of 25e, 25f, 25g, 25n and 25u to activate EPAC1 and EPAC2 in cellular Rap1 activation assays (FIG. 7) were compared. For these U2OS cells transfected with either EPAC1 or EPAC2 (FIG. 7) was used. […] Densitometry was carried out on all immunoblots and the ratio of EPAC1 to EPAC2 activation was calculated and presented in a bar graph in FIG. 8.
Active Rap1 Pull-down. U2OS cells (from Professor Holger Rehmann, University of Utrecht) stably transfected with EPAC1 or EPAC2 were cultured in 6-well plates in DMEM, high glucose, supplemented with 10% (v/v) FBS, 1% (v/v) GlutaMAX, 1% (v/v) Penicillin-Streptomycin and 2 mg/l puromycin (to ensure selection of stable transfectants). 80% confluent cells were starved in culture medium with reduced FBS concentration (0.5 %) for 16 h and then stimulated for 10 min with either vehicle, 100 µM of studied compounds, or 50 µM of 2 in case of U2OS-EPAC1 or 100 µM of compound 4 for U2OS-EPAC2. Cells were then rinsed with ice-cold PBS and lysed in 0.5 ml cell lysis buffer (Cell Signaling Technologies) supplemented with 10 mM MgCl2 and 1 mM PMSF, followed by clearing the lysates by centrifugation. Cell lysates were incubated for 1 h (4° C., gentle agitation) with 40 µg GST-RalGDS-RBD immobilized on Glutathione Sepharose 4B (GE Healthcare) to selectively capture GTP-bound Rap1. Later on, the glutathione resin was separated from supernatant by centrifugation, washed three times with cell lysis buffer, then resuspended in 2x SDS sample loading buffer and denatured for 5 min at 95° C.
as §1

Assay [2] has as its target T2, EPAC1. The experiment in a line: In vitro GEF screen (EPAC1 activation assay). As to conditions: 10 µM, FIG. 6. The arrangement: expressed in transfected cells; host or cells: U2OS cells (from Professor Holger Rehmann, University of Utrecht). It counts as biochemical. As for the experimental part:
FIGS. 6A-B. Identification of compounds including 25g (PW0381) 25q (PW0521) 25n (PW0577), 25u (PW0606), 25e (PW0624) and 25f (PW0625) as EPAC1 activators in an in vitro GEF screen. […] Selected compounds have been highlighted as indicated.
as §2

This note sets out measurements from patent US20230150929A1, “SELECTIVE NON-CYCLIC NUCLEOTIDE ACTIVATORS FOR THE CAMP SENSOR EPAC1” (The Board of Regents of The University of Texas System, priority 2020, published 2023).

Molecules are shown by their SMILES.

Consider `O=C(COc1ccc2ccccc2c1)NS(=O)(=O)c1ccc([N+](=O)[O-])c(F)c1` [Compound 25e, N-((3-Fluoro-4-nitrophenyl)sulfonyl)-2-(naphthalen-2-yloxy)acetamide], for which the “PKA activation (VASP phosphorylation)” value in the assay on PKA is “unable to activate PKA”. Besides, the “IC50 values as EPAC1 binders (in words)” value at EPAC1-CNBD was “low micromolar to sub-micromolar”. Moreover, at EPAC1 [1], the “Rap1 activation in EPAC1 cells” value is “roughly equivalent to the positive control” and the “selectivity: ability to activate EPAC1 over EPAC2 (ratio of EPAC1 to EPAC2 activation)” value was “best selectivity”. Moreover, the “EPAC1 activity in GEF assay” value at EPAC1 [2] was “promote EPAC1 activity more effectively than 25g, 25n and 25q”.
`Nc1ccc(S(=O)(=O)NC(=O)COc2ccc3ccccc3c2)cc1F` [Compound 25f, N-((4-Amino-3-fluorophenyl)sulfonyl)-2-(naphthalen-2-yloxy)acetamide]: the “PKA activation (VASP phosphorylation)” value with PKA was “unable to activate PKA”. Further, on EPAC1-CNBD, the “RFI (%) (relative fluorescence intensity), Table 4” value worked out at 81 ± 8% and the “IC50 values as EPAC1 binders (in words)” value was “low micromolar to sub-micromolar”. Also, the “selectivity: ability to activate EPAC1 over EPAC2 (ratio of EPAC1 to EPAC2 activation)” value at EPAC1 [1] is given as “best selectivity”. Besides, on EPAC1 [2], the “EPAC1 activity in GEF assay” value was “promote EPAC1 activity more effectively than 25g, 25n and 25q”.
Take `Cc1cc(Nc2ncccc2C(F)(F)F)cc(S(=O)(=O)NC(=O)COc2ccc3ccccc3c2)c1` [Compound 25u, N-((3-Methyl-5-((3-(trifluoromethyl)pyridin-2-yl)amino)phenyl)sulfonyl)-2-(naphthalen-2-yloxy)acetamide]: the “PKA activation (VASP phosphorylation)” value with PKA is listed as “unable to activate PKA”. On EPAC1-CNBD, the “RFI (%) (relative fluorescence intensity), Table 4” value is on record as 56 ± 6% and the “IC50 values as EPAC1 binders (in words)” value was “low micromolar to sub-micromolar”. On EPAC1 [1], the “Rap1 activation in EPAC1 cells” value is “roughly equivalent to the positive control”. Besides, at EPAC1 [2], the “EPAC1 activity in GEF assay” value was “promote EPAC1 activity more effectively than 25g, 25n and 25q”.
Take `COc1cccc(S(=O)(=O)NC(=O)COc2ccc3ccccc3c2)c1` [Compound 25z, N-((3-methoxyphenyl)sulfonyl)-2-(naphthalen-2-yloxy)acetamide]: the “RFI (%) (relative fluorescence intensity), Table 4” value on EPAC1-CNBD came to 33 ± 3%.
